Activity calls are given as the source filed them.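 The calls were made as follows: active = EC50 no more than a set limit of log units above the highest dose; inactive = the rest.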

This test concerns the target S. pyogenes SKKanGAS, kanamycin survival, BacTiterGlo, 6 h. In words: SKKanGAS survival reduction under kanamycin, dose response, streptokinase promoter inhibitor project, SKKanGAS strain, luminescence, dose confirmation (AID 1902).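 Also: lower survival reflects blocked streptokinase promoter driving kanamycin resistance gene.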
As to `O=C1NC(=Nc2ccc(Cl)cc2)SC1Cc1cccc(Cl)c1Cl` (configuration not stated), the EC50 (commonly the concentration needed to bring the measured effect to its halfway point) was 6.95 µM.

In the case of `CC1(C)Cc2nc3sc4c(OCc5ccccc5)ncnc4c3cc2CO1`, the EC50 was 4.19 µM.

Regarding `Cc1ccc2sc(NNC(=O)c3ccc4c(c3)OCCO4)nc2c1C`, the EC50 was 3.79 µM.

With `CC(C)(C)NC(=O)C1CC2CCCCC2CN1` (configuration not stated), the EC50 was > 15 µM (inactive).

Regarding `CC(Oc1ccc(Cl)cc1Cl)C(=O)Nc1ccc(S(=O)(=O)Nc2cnc3ccccc3n2)cc1` (configuration not stated), the EC50 is 3.88 µM.

Take `COc1ccc(S(=O)(=O)Nc2cc3c4c(oc3c3ccccc23)CC(C)(C)CC4=O)cc1`: the EC50 was 6.26 µM.

`Cc1nc2ccccc2n1/N=C/c1ccc([N+](=O)[O-])s1`: the EC50 was 2.39 µM.

As for `Cc1cc(C)c(-c2noc(C(=O)OC(C)(C)C)c2C(=O)OC(C)(C)C)c(C)c1`, the EC50 was 3.58 µM.

As for `C/C(=N\NC(=O)c1ccccc1N)c1ccc(NC(=O)Cc2ccccc2)cc1`, the EC50 is 4.95 µM.

As to `O=C(Cc1ccccc1)NNC(=S)NC(=O)c1cccs1`, the EC50 is 3.83 µM.

Regarding `COc1ccc(Cn2c(SCc3cc(C)ccc3C)nc3cc(OC)c(OC)cc3c2=N)cc1`, the EC50 was 2.73 µM.

On to `COc1cc2c(C(=O)N3CCN(c4ccccc4C)CC3)c(C)oc2cc1Br`, for which the EC50 was 10.3 µM.

As for `Fc1ccc(CSc2ncnc3sc4c(c23)CCCC4)cc1`, the EC50 is 3.97 µM.

As for `Cc1nn(-c2ccccc2)c(Cl)c1/C=N/Nc1ccc(S(=O)(=O)Nc2ccccc2C(=O)O)cc1[N+](=O)[O-]`, the EC50 was 1.29 µM.

Take `CCN(CC)c1ccc(C=N/C(C#N)=C(\N)C#N)cc1`: the EC50 is > 15 µM (inactive).

In the case of `CC(C)(C)c1ccc(C(=O)CC(=O)c2cc(Cl)ccc2O)cc1`, the concentration giving a half-maximal response (EC50) was 0.349 µM.

For `Cc1ccc2nc(N/C(=N/S(=O)(=O)c3ccc(F)cc3)c3ccccc3)sc2c1`, the EC50 is 6.17 µM.

On to `CCn1cc(C(=O)OCC(=O)c2cc(C)n(-c3cccc(C(F)(F)F)c3)c2C)c(=O)c2ccc(C)nc21`, for which the EC50 was 9.92 µM.

For the molecule `NC(=S)N=Nc1ccc(NN=C(N)N)cc1`, the EC50 is less than 0.06 µM.

With `CC(=O)[C@@]1(O)C(C)CC2C3C=C(C)C4=Cc5c(cnn5-c5ccccc5)C[C@]4(C)C3C(O)C[C@@]21C` (some centres not stated), the EC50 was 3.56 µM.

Regarding `CC(/C=C1\SC(=S)N(CCCC(=O)Nc2ccc(C(=O)O)cc2)C1=O)=C\c1ccccc1`, the EC50 is 0.19 µM.

On to `O=[N+]([O-])c1cc(C(F)(F)F)cc([N+](=O)[O-])c1NCCNC(=S)Nc1ccc(Cl)c(Cl)c1`, for which the EC50 was 1.12 µM.

In the case of `Fc1ccccc1CNc1ccc(Cl)c(Cl)c1`, the EC50 is 15.6 µM.

For `c1ccc(-c2csc3ncnc(N4CCc5ccccc5C4)c23)cc1`, the EC50 is 7.04 µM.

Turning to `O=C(NNC(=O)c1ccccc1OCc1ccc(F)cc1)c1ccccc1O`, the EC50 is 2.5 µM.

Take `O=C(NCC1(N2CCCCC2)CCCCC1)c1cccc(NS(=O)(=O)c2ccccc2)c1`: the EC50 is > 15 µM (inactive).

For the molecule `c1ccc(CCNc2nc(-c3ccccn3)nc3ccccc23)cc1`, the EC50 is 0.884 µM.

Regarding `Oc1cccc2ccc(/C=C/c3ccccc3Cl)nc12`, the EC50 was 0.248 µM.

Consider `O=Nc1c(-c2c(O)[nH]c3cc(Br)ccc23)[nH]c2ccccc12`, for which the EC50 is 2.95 µM.

On to `CC(C(=O)NC1C(=O)N2C(C(=O)O)=C(CSc3nnnn3C)CSC12)n1cc(Cl)cn1` (configuration not stated), for which the EC50 is 0.078 µM.

With `C/C(CC(=O)Nc1ccc(Cl)c(C(F)(F)F)c1)=N\NC(=O)c1ccccc1O`, the EC50 was 3.98 µM.

For the molecule `Cc1[nH]n2c(=O)cc(C(C)(C)C)nc2c1-c1ccccc1`, the EC50 is 2.77 µM.

For the molecule `Cc1cccc(N2CCN(C(=O)C34CC5CC(CC(C5)C3)C4)CC2)c1C`, the EC50 is 5.65 µM.

Take `Cc1ccc(Cn2ccc(=O)c(OCc3c(Cl)cccc3Cl)c2C)cc1`: the EC50 was 5.94 µM.

Turning to `COc1cc([N+](=O)[O-])cc(/C=N\NC(=O)C2COc3ccccc3O2)c1O` (configuration not stated), the EC50 is 3.61 µM.

Consider `COc1ccc(C2/C=C\CN(C(=O)c3ccccc3)CC(=O)N2Cc2ccc(F)cc2)cc1` (configuration not stated), for which the EC50 is > 15 µM (inactive).

For `N#C/C(=C(/O)CCl)c1nc2c(s1)CCc1ccccc1-2`, the EC50 is 12.2 µM.

`Cc1ccc(Cl)cc1NC1=C/C(=N\S(=O)(=O)c2cccs2)c2ccccc2C1=O`: the EC50 was 0.908 µM.

For `Cc1ccc(C)c(C(=O)COC(=O)c2cc(Cl)nc3ccccc23)c1`, the EC50 is 10.9 µM.

Take `COC(=O)/C=C1\SC(=Nc2ccc(Cl)c(Cl)c2)NC1=O`: the EC50 was 8.93 µM.

`CC(C)(C)OC(=O)[C@H](Cc1ccccc1)NC(=O)c1[nH]cnc1C(=O)Nc1cccc(Cl)c1`: the EC50 is 2.4 µM.

Take `CC(=O)NC(c1ccc(C)cc1)c1cc(Cl)c2cccnc2c1O` (configuration not stated): the EC50 was 1.42 µM.

As to `O=C(O)CCSc1ccc([N+](=O)[O-])cc1[N+](=O)[O-]`, the EC50 is > 15 µM (inactive).

For `CCOC(=O)c1cc(-c2ccc3c(c2)OCCO3)nc2c1c(C)nn2CCC#N`, the EC50 was 3.42 µM.

With `COc1ccc(NC(=O)C(=O)NNC(=O)C(C)Oc2ccc(Cl)cc2Cl)cc1` (configuration not stated), the EC50 was 3.31 µM.

For the molecule `CO[C@H]1C=CO[C@@]2(C)Oc3c(C)c(O)c4c(O)c(c5c(nc6cc(C)ccn65)c4c3C2=O)NC(=O)C(C)=CC=C[C@H](C)[C@H](O)[C@@H](C)[C@@H](O)[C@@H](C)[C@H](OC(C)=O)[C@@H]1C`, the EC50 is less than 0.06 µM.

As to `CCc1c(C)nc2cc(-c3ccc(OC)c(OC)c3)nn2c1N1CCC(C)CC1`, the EC50 is 7.56 µM.

Turning to `CCOC(=O)c1cnc(-n2nc(C)cc2C)nc1Nc1ccc(OC)cc1`, the EC50 was 0.185 µM.

In the case of `CN(C)CCCNc1cc(C(C)(C)C)nc2c(-c3ccc(Cl)cc3)cnn12`, the EC50 was 1.94 µM.

For the molecule `Cc1[nH]n(-c2cccc3ccccc23)c(=O)c1/C=N/NC(=O)c1cccc([N+](=O)[O-])c1`, the EC50 was 2.47 µM.

In the case of `O=C(Nc1nnc(SCc2c(Cl)cccc2Cl)s1)C1CC(=O)N(c2ccc3c(c2)OCCO3)C1` (configuration not stated), the EC50 is 9.74 µM.

Take `C=CCn1c(SCC(=O)/C(C#N)=C(\C)N)nc2sc(C)c(C)c2c1=O`: the EC50 was 5.25 µM.

In the case of `CCOc1ccc2[nH]c3c(N4CCc5ccccc5C4)ncnc3c2c1`, the EC50 is 7.94 µM.

For the molecule `O=C(NC(=S)NNC(=O)[C@H]1C[C@@H]1c1ccccc1)c1cccc(F)c1`, the EC50 is 0.756 µM.

Regarding `c1ccc(-c2nc(C3CCCCC3)c3ccccc3n2)cc1`, the EC50 was 3.87 µM.

As for `c1ccc(-c2nnc(-c3ccccn3)nc2NC2CCCCC2)cc1`, the EC50 is 2.95 µM.

As for `Clc1ccc(-[n+]2c(-c3cccc(Br)c3)[nH]c3nc4ccccc4nc32)cc1`, the EC50 is 1.67 µM.

Take `C[C@H]1[C@H](C)CC[C@]2(C(=O)O)CC[C@]3(C)C(=CC[C@@H]4[C@@]5(C)C[C@@H](O)[C@H](O)C(C)(C)[C@@H]5CC[C@]43C)[C@H]12`: the EC50 was 2.81 µM.

Turning to `O=C(Oc1ccc(Cl)c2cccnc12)c1ccco1`, the EC50 is 3.69 µM.

In the case of `Cc1nn(Cc2c(Cl)cccc2Cl)c(C)c1NC(=O)c1cn(-c2ccccc2)nc1-c1ccccc1`, the EC50 was 9.33 µM.

As to `Cc1nc(=S)c2c([nH]1)-c1ccccc1CC21CCCCC1`, the EC50 was 0.945 µM.

Regarding `O=C(N/N=C/c1c(O)n(Cc2ccccc2)c(=O)[nH]c1=O)c1ccccc1`, the EC50 is 8.62 µM.

Consider `COc1ccc(NC(=S)NC(NC(=O)c2ccc(Cl)cc2Cl)C(Cl)(Cl)Cl)c([N+](=O)[O-])c1` (configuration not stated), for which the EC50 was 1.15 µM.

As to `COc1ccc(CC(=O)NC(=S)NNC(=O)COc2c(C)cccc2C)cc1`, the EC50 is 0.134 µM.

Turning to `Cc1ccc(C)c(-c2cc(C(=O)Nc3sc(C)c(C)c3C(N)=O)c3ccccc3n2)c1`, the EC50 was 3.55 µM.

Consider `COC12C(COC(N)=O)C3=C(C(=O)C(C)=C(N)C3=O)N1CC1C2N1C` (configuration not stated), for which the EC50 is less than 0.06 µM.

On to `Cc1cccc(OCCCCc2c(C)n[nH]c2C)c1C`, for which the EC50 was 4.74 µM.

For the molecule `O=[N+]([O-])c1ccc(-c2nc(Nc3cccc(O)c3)c3ccccc3n2)cc1`, the EC50 is 10.7 µM.

Regarding `CCc1ccc(/C=C/C(=O)c2cc(Br)ccc(=O)c2O)cc1`, the EC50 is 0.417 µM.

Consider `O=C(NCc1ccccc1)C(=O)Nc1nc(-c2ccccc2)cs1`, for which the EC50 was 5.23 µM.

`Cc1nn(CC(=O)Nc2c(F)c(F)cc(F)c2F)c(=O)c2cccn12`: the EC50 is > 15 µM (inactive).

In the case of `CCCCC[n+]1ccn(C2=C([O-])c3ccccc3C(=O)/C2=N\S(=O)(=O)c2ccccc2)c1`, the EC50 is 2.58 µM.

Turning to `COc1ccc(-c2cn[nH]c2-c2ccc(OCc3ccccc3)cc2O)cc1`, the EC50 was 2.38 µM.

On to `Cc1ccc(CN2CC(C(=O)Nc3nnc(SCc4c(Cl)cccc4Cl)s3)CC2=O)cc1` (configuration not stated), for which the EC50 was 4.87 µM.

`CCOC(=O)c1c(C)oc2c1c(C(c1ccccc1)N1CCOCC1)c(O)c1ccccc12` (configuration not stated): the EC50 is 2.66 µM.

For the molecule `CN1CCN(C(=O)C(=O)c2cn(CC(=O)N3CCCC3)c3ccccc23)CC1`, the EC50 was > 15 µM (inactive).

For `C/C(=N\Nc1nc2ccccc2[nH]1)c1ccc2c(c1)OCO2`, the EC50 was 4.28 µM.

On to `NS(=O)(=O)c1ccc(N2N=C(c3ccc(Br)cc3)CC2c2ccc(F)cc2)cc1` (configuration not stated), for which the EC50 was 2.21 µM.

As for `N[C@@H](C(=O)N[C@@H]1C(=O)N2C(C(=O)O)=C(Cl)CS[C@H]12)c1ccccc1`, the EC50 is 0.465 µM.

Consider `Clc1ccc(-c2csc(Nc3ccccc3)[n+]2Cc2ccco2)c(Cl)c1`, for which the EC50 was 3.35 µM.

Turning to `O=C(Nc1nc(-c2ccccn2)cs1)Nc1ccc(F)cc1F`, the EC50 was 1.24 µM.

As to `CCCOc1ccc(Cc2c(Cl)nc(SC)nc2N(C)C)cc1`, the EC50 was 3.46 µM.

`Oc1ccc(-c2nc3c4c(ncn3n2)-c2ccccc2CC42CCCC2)cc1`: the EC50 is 0.843 µM.

Turning to `c1ccc(/N=C2\N=C(Nc3ccccn3)c3ccccc32)nc1`, the EC50 is 2.44 µM.

In the case of `Cc1nn(-c2ccccc2)c2sc(C(=O)N3CCc4ccccc4C3)cc12`, the EC50 was 4.16 µM.

As for `COc1ccc(/C=C/C(=O)NC(=S)N2CCN(c3ccccc3OC)CC2)cc1`, the EC50 was > 15 µM (inactive).

Turning to `CCOC(=O)c1cccnc1SCC(=O)NC(C)CC` (configuration not stated), the EC50 was > 15 µM (inactive).

Regarding `COC(=O)c1cc(-c2ccc(OC)cc2F)nc2nc(SC)[nH]c(=O)c12`, the concentration giving a half-maximal response (EC50) was 2.57 µM.

Turning to `CCCCCCCCCCC(=O)NNC(=O)c1c(O)c2ccccc2n(CC)c1=O`, the EC50 is 0.185 µM.

Turning to `COc1ccc(-c2nc(NC(C)=O)sc2-c2ccc(OC)cc2)cc1`, the EC50 is 4.05 µM.

With `CC(=O)Oc1c(-c2ccc(Br)o2)oc2ccccc2c1=O`, the EC50 was 3.34 µM.

Take `O=c1c(O)c(-c2cccs2)oc2ccccc12`: the EC50 is 3.94 µM.

(Values after PubChem BioAssay AID1902 (Broad Institute, 2009).)
